# Data: patent US6696471B2, “Aminopyrrole compounds” (Syntex (U.S.A.) LLC, priority 2001, dated 2004)
# Molecular target: T1, p38 MAP kinase (Homo sapiens, UniProt Q16539)
# T1 construct: made in house; host or cells: E. coli (co-expressed with SEK-1 and MEKK)
# Test: Inhibition of p-38 (MAP) kinase in vitro assay (transfer of γ-33P from ATP to Myelin Basic Protein)
# Format: biochemical
# Conditions: phosphorylated recombinant p38 MAP kinase, MBP substrate, γ-33P-ATP, 30° C.; read-out: p-38 inhibitory activity, IC50
# Protocol: Inhibition Of p-38 (MAP) Kinase . . . In Vitro Assay
# The p-38 MAP kinase inhibitory activity of compounds of this invention in vitro was determined by measuring the transfer of the γ-phosphate from γ-^33P-ATP by p-38 kinase to Myelin Basic Protein (MBP), using the a minor modification of the method described in Ahn, N. G.; et al. J. Biol. Chem. Vol. 266(7), 4220-4227, (1991).
# The phosphorylated form of the recombinant p38 MAP kinase was expressed with SEK-1 and MEKK in E. Coli and then purified by affinity chromatography using a Nickel column.
# The phosphorylated p38 MAP kinase was diluted in kinase buffer (20 mM 3-(N-morpholino)propanesulfonic acid, pH 7.2, 25 mM β-glycerol phosphate, 5 mM ethylene glycol-bis (beta-aminoethyl ether)-N,N,N′,N′-tetraacetic acid, 1 mM sodium vanadate, 1 mM dithiothreitol, 40 mM magnesium chloride). Test compound dissolved in DMSO or only DMSO (control) was added and the samples were incubated for 10 min at 30° C. The kinase reaction was initiated by the addition of a substrate cocktail containing MBP and γ-^33P-ATP. After incubating for an additional 20 min at 30° C., the reaction was terminated by adding 0.75% phosphoric acid. The phosphorylated MBP was then separated from the residual γ-^33P-ATP using a phosphocellulose membrane (Millipore, Bedford, Mass.) and quantitated using a scintillation counter (Packard, Meriden, Conn.).
# Compounds of the invention were active in this assay. The p-38 inhibitory activities (expressed as IC50, the concentration causing 50% inhibition of the p-38 enzyme being assayed) of some compounds of the invention are: […]
# T1 sequence (Q16539 whole entry): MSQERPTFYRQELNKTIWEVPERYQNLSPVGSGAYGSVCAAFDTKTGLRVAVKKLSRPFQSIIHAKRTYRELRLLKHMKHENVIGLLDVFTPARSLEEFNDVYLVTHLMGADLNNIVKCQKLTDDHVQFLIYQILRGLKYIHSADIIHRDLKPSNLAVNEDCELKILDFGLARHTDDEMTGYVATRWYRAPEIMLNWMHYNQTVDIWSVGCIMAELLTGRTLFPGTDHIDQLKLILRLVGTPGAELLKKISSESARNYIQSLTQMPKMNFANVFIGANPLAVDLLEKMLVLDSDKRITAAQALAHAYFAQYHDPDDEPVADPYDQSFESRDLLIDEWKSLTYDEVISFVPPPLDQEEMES
row,IC50,SMILES
1,0.164 µM,Nc1c(C(=O)c2ccccc2)cc(-c2cccnc2)n1-c1ccc(F)cc1 [Cpd 1]
2,0.169 µM,COc1cccc(C(=O)c2cc(-c3cccnc3)n(-c3ccc(F)cc3)c2N)c1 [Cpd 2]
3,0.468 µM,Nc1c(C(=O)c2cccc(O)c2)cc(-c2cccnc2)n1-c1ccc(F)cc1 [Cpd 3]
4,0.12 µM,Nc1c(C(=O)c2cccc(OC[C@H](O)CO)c2)cc(-c2cccnc2)n1-c1ccc(F)cc1 [Cpd 4]
